From patent publication US9388389B2, “JFH-1 based HCV cell culture systems for NS5A of genotypes 1-7” (Hvidovre Hospital, priority 2009, dated 2016)
Where two headings read alike, the source gives them in different places.

Legend:
genotype 1 replicons = conditions: cited from earlier work
[1] = test system: QC69(7a) NS5A recombinant; experiment: BMS-790052 treatment of infected cultures; type: cell-based; conditions: Hepatitis C virus; genotype 7a, isolate QC69 NS5A recombinant; read-out: NS5A inhibitor, EC50 (nM), original
Procedure: (§1) 5×10^3 naïve Huh7.5 cells were plated per well in a poly-D-lysine coated 96-well plate (Nunc, Roskilde, D K) one day before infection with different recombinant viruses. Infectious doses were chosen to aim at 400-1000 single infected cells in non-treated wells at the end of the experiment. J6/JFH1 was included with two infectious doses (high and low) to control for impact of dose variability. The infectious dose of other recombinants was in the range between. […] On day three cells were fixed and immunostained for NS3 expression as described above. In parallel, cell viability was monitored with CellTiter™ 96 AQueous One Solution Cell Proliferation Assay (Promega, Madison, Wis. USA). The number of single infected cells was determined by automated counting of individual wells as described above.
(§2) To improve HCV treatment, much attention has been drawn to development of specific small molecule HCV inhibitors, including inhibitors of NS5A. Using the NS5A genotype recombinants, we investigated sensitivity to the NS5A inhibitor most advanced in clinical trials, BMS-790052. Treatment experiments using the specific NS5A inhibitor BMS-790052 (synthesized by Acme Bioscience, Palo Alto, Calif., USA) were conducted similar to what was described for interferon-alpha.

[2] = test system: SA13(5a) NS5A recombinant; experiment: BMS-790052 treatment of infected cultures; type: cell-based; conditions: Hepatitis C virus; genotype 5a, isolate SA13 NS5A recombinant; read-out: NS5A inhibitor, EC50 (nM), original
Procedure: as §1, §2

[3] = test system: ED43(4a) NS5A recombinant; experiment: BMS-790052 treatment of infected cultures; type: cell-based; conditions: Hepatitis C virus, read-out: NS5A inhibitor, EC50 (nM), original
Procedure: as §1, §2

J1(1a) NS5A recombinant = experiment: BMS-790052 treatment of infected cultures; type: cell-based; conditions: Hepatitis C virus
Procedure: as §1, §2

[4] = test system: HCV-1(1a) NS5A recombinant; experiment: BMS-790052 treatment of infected cultures; type: cell-based; conditions: Hepatitis C virus; genotype 1a, isolate HCV-1 NS5A recombinant; read-out: NS5A inhibitor, EC50 (nM), original
Procedure: as §1, §2

[5] = test system: H77C(1a) NS5A recombinant; experiment: BMS-790052 treatment of infected cultures; type: cell-based; conditions: Hepatitis C virus; genotype 1a, isolate H77C NS5A recombinant; read-out: NS5A inhibitor, EC50 (nM), original
Procedure: as §1, §2

[6] = test system: HK6a(6a) NS5A recombinant; experiment: BMS-790052 treatment of infected cultures; type: cell-based; conditions: Hepatitis C virus; genotype 6a, isolate HK6a NS5A recombinant; read-out: NS5A inhibitor, EC50 (nM), original
Procedure: as §1, §2

TN(1a) NS5A recombinant = experiment: BMS-790052 treatment of infected cultures; type: cell-based; conditions: Hepatitis C virus; genotype 1a, isolate TN NS5A recombinant; read-out: NS5A inhibitor, EC50 (nM), original
Procedure: as §1, §2

DH6(1a) NS5A recombinant = experiment: BMS-790052 treatment of infected cultures; type: cell-based; conditions: Hepatitis C virus; genotype 1a, isolate DH6 NS5A recombinant; read-out: NS5A inhibitor, EC50 (nM), original
Procedure: as §1, §2

S52(3a) NS5A recombinant = experiment: BMS-790052 treatment of infected cultures; type: cell-based; conditions: Hepatitis C virus
Procedure: as §1, §2

JFH1(2a) NS5A (J6/JFH1) = experiment: BMS-790052 treatment of infected cultures; type: cell-based; conditions: Hepatitis C virus; genotype 2a, isolate JFH1 NS5A (J6/JFH1); read-out: NS5A inhibitor, EC50 (nM), original
Procedure: as §1, §2

J4(1b) NS5A recombinant = experiment: BMS-790052 treatment of infected cultures; type: cell-based; conditions: Hepatitis C virus
Procedure: as §1, §2

[7] = test system: J6/JFH1 with NS5A mutation I37V; experiment: BMS-790052 treatment of infected cultures; type: cell-based, hepatitis C virus

SMILES: COC(=O)N[C@H](C(=O)N1CCC[C@H]1c1nc(-c2ccc(-c3ccc(-c4c[nH]c([C@@H]5CCCN5C(=O)[C@@H](NC(=O)OC)C(C)C)n4)cc3)cc2)c[nH]1)C(C)C [BMS-790052]
- fold resistance induced by change of NS5A residue 93 (genotype 1 replicons): > 10 fold
- EC50 [1]: 0.05 nM
- EC50 [2]: 0.034 nM
- EC50 [3]: 0.017 nM
- EC50 (J1(1a) NS5A recombinant; J1(1a), read-out: EC50): 1.1 nM
- EC50 (J1(1a) NS5A recombinant; genotype 1a, isolate J1 NS5A recombinant, read-out: NS5A inhibitor, EC50 (nM), original): 1.1 nM
- EC50 [4]: 0.12 nM
- EC50 [5]: 0.026 nM
- EC50 [6]: 0.031 nM
- EC50 (TN(1a) NS5A recombinant): 0.038 nM
- EC50 (DH6(1a) NS5A recombinant): 0.065 nM
- EC50 (S52(3a) NS5A recombinant; S52(3a), read-out: EC50): 0.9 nM
- EC50 (S52(3a) NS5A recombinant; genotype 3a, isolate S52 NS5A recombinant, read-out: NS5A inhibitor, EC50 (nM), original): 0.9 nM
- EC50 (JFH1(2a) NS5A (J6/JFH1)): 0.097 nM
- EC50 (J4(1b) NS5A recombinant; J4(1b), most sensitive, read-out: EC50): 0.009 nM
- EC50 (J4(1b) NS5A recombinant; genotype 1b, isolate J4 NS5A recombinant, read-out: NS5A inhibitor, EC50 (nM), original): 0.009 nM
- EC50 ([7]; Hepatitis C virus, JFH1(2a), NS5A mutation I37V, single experiment of three replicates, read-out: NS5A inhibitor, EC50 (nM), putative resistance mutant): 0.17 nM
- Fold resistance compared to original ([7]; JFH1(2a) I37V vs original JFH1(2a)): 2.0 fold
